In patent US10653144B2, “Pesticidal and parasiticidal vinyl isoxazoline compounds” (BOEHRINGER INGELHEIM ANIMAL HEALTH USA INC., priority 2016, dated 2020):

system: A. aegypti L1 larvae; test: A. aegypti L1 larvae motility dose response assay; conditions: Aedes aegypti, 48 h, diluted LB media, 25° C., motility vs DMSO control wells
Description: Efficacy of Compounds Against A. aegypti Mosquitos Compounds were formulated in 100% DMSO are added to microtiter plates containing 180 μl of diluted LB media (Luria-Bertani media is a combination of tryptone, salt and yeast extract). Ten A. aegypti L1 larvae are added and the plates are incubated at 25° C. for 48 h. The efficacy of a compound is determined based on the motility of the larvae as compared to average motility of control wells containing DMSO only. A dose response assay was conducted to determine an EC50 value.

| Compound | EC50 |
| --- | --- |
| O=C(CNC(=O)c1ccc(/C=C/C2=NOC(c3cc(Cl)cc(C(F)(F)F)c3)(C(F)(F)F)C2)c2ccccc12)NCC(F)(F)F (stereo not shown) [Compound 1, 2-([4-[2-[5-[3-chloro-5-(trifluoromethyl)phenyl]-5-(trifluoromethyl)-4,5-dihydro-1,2-oxazol-3-yl]ethenyl]naphthalen-1-yl]formamido)-N-(2,2,2-trifluoroethyl)acetamide] | ≤ 20 µM |
| O=C(CNC(=O)c1ccc(/C=C/C2=NOC(c3cc(Cl)cc(C(F)(F)F)c3)(C(F)(F)F)C2)n2cncc12)NCC(F)(F)F (stereo not shown) [Compound 5, 2-([5-[2-[5-[3-chloro-5-(trifluoromethyl)phenyl]-5-(trifluoromethyl)-4,5-dihydro-1,2-oxazol-3-yl]ethenyl]imidazo[1,5-a]pyridin-8-yl]formamido)-N-(2,2,2-trifluoroethyl)acetamide] | ≤ 20 µM |
| O=C(NCCC(F)(F)F)c1ccc(/C=C/C2=NOC(c3cc(Cl)cc(C(F)(F)F)c3)(C(F)(F)F)C2)c2ccccc12 (stereo not shown) [Compound 2, 4-[2-[5-[3-chloro-5-(trifluoromethyl)phenyl]-5-(trifluoromethyl)-4,5-dihydro-1,2-oxazol-3-yl]ethenyl]-N-(3,3,3-trifluoropropyl)naphthalene-1-carboxamide] | ≤ 20 µM |
| O=C(NCCC(F)(F)F)c1ccc(/C=C/C2=NOC(c3cc(Cl)cc(C(F)(F)F)c3)(C(F)(F)F)C2)n2cncc12 (stereo not shown) [Compound 6, 5-[2-[5-[3-chloro-5-(trifluoromethyl)phenyl]-5-(trifluoromethyl)-4,5-dihydro-1,2-oxazol-3-yl]ethenyl]-N-(3,3,3-trifluoropropyl)imidazo[1,5-a]pyridine-8-carboxamide] | ≤ 20 µM |
